Converted amounts (≈) assume the structure as drawn. Read-outs that look alike come from different tables or passages of the source.
How the values were obtained:
EBOV G-A82 = assay: microbe, parasite or virus in culture; assay type: cell-based, Ebola virus; conditions: Zaire ebolavirus, HeLa, read-out: EBOV G-A82 (Hela) EC50
EBOV Kikwit = assay: microbe, parasite or virus in culture; assay type: cell-based, Ebola virus; conditions: Zaire ebolavirus, HeLa, read-out: EBOV Kikwit(Hela) EC50
EBOV Makona = assay: microbe, parasite or virus in culture; assay type: cell-based, Ebola virus; conditions: Zaire ebolavirus, HeLa, read-out: EBOV Makona (Hela) EC50
Ebola virus (Mayinga) = assay: microbe, parasite or virus in culture; assay type: cell-based; conditions: Zaire ebolavirus, HeLa, read-out: EBOV Maiynga) (Hela) EC50
[1] = mouse, in vivo
in vivo = conditions: mouse, po
in vitro [2] = conditions: mouse, plasma
[3] = test system: vesicular stomatitis virus particles (VSV) pseudotyped with EboV Zaire GP; assay: microbe, parasite or virus in culture; assay type: cell-based
[4] = pH 7.4
in vitro [5] = conditions: mouse, microsomes
physchem = conditions: pH 7.4, aqueous buffer, kinetic from dmso stock
[6] = human, microsomes
[7] = plasma
[8] = test system: vesicular stomatitis virus particles (VSV) pseudotyped with EboV Zaire GP; conditions: cited from earlier work
[9] = not given; remark: listed apart in the source
VSV G = conditions: cited from earlier work
[10] = test system: Lassa fever virus (LFV) GP; conditions: cited from earlier work

**Q.** For `CS(=O)(=O)c1ccc(COc2ccc(Cl)cc2CN2CCN(C(=O)CNC(=O)C3CC34CCC(F)(F)CC4)CC2)cc1` (stereo not shown) [Compound 1476], which EC50 (EBOV G-A82) is on record?
**A.** The EC50 was under 80 nM.

**Q.** What about the EC50 (EBOV Kikwit) of the same compound?
**A.** Its EC50 is 210 nM.

**Q.** What about the EC50 (EBOV Makona) of the same compound?
**A.** Its EC50 is 140 nM.

**Q.** What about the EC50 (Ebola virus (Mayinga)) of the same compound?
**A.** Its EC50 is 420 nM.

**Q.** And the “m-μsome T1/2 (with 3 μM of Ritonavir)” value (mouse, microsomes, pH 7.4)?
**A.** The value was 2.83 h.

**Q.** And the “C@12 hr” value [1]?
**A.** Its value is 14 µM.

**Q.** What about the AUC (in vivo) of the same compound?
**A.** The AUC was 314 µM·h.

**Q.** What about the Cmax (in vivo) of the same compound?
**A.** The Cmax was 23 µM.

**Q.** And the half-life (in vivo)?
**A.** Its half-life is 6.1 h.

**Q.** What about the fraction unbound (in vitro [2]; m-plasma protein binding) of the same compound?
**A.** The fraction unbound was 0.013.

**Q.** For `CS(=O)(=O)c1ccc(CNc2ccc(Cl)cc2CN2CCN(C(=O)CNC(=O)C3CC34CCC(F)(F)CC4)CC2)cc1` (stereo not shown) [Compound 1478], which EC50 (EBOV Kikwit) is on record?
**A.** Its EC50 is 9 nM.

**Q.** And the EC50 (EBOV Makona)?
**A.** The EC50 was 17 nM.

**Q.** And the EC50 (Ebola virus (Mayinga))?
**A.** Its EC50 is 35 nM.

**Q.** What about the “m-μsome T1/2 (with 3 μM of Ritonavir)” value (mouse, microsomes, pH 7.4) of the same compound?
**A.** The value was 2.13 h.

**Q.** And the fraction unbound (in vitro [2]; m-plasma protein binding)?
**A.** Its fraction unbound is 0.001.

**Q.** For `[2H]C([2H])(c1cc(Cl)ccc1N)N1CCN(C(=O)CNC(=O)CC2CCC(F)(F)CC2)CC1` [Compound 1412, N-(2-(4-((2-amino-5-chlorophenyl)methyl-d2)piperazin-1-yl)-2-oxoethyl)-2-(4,4-difluorocyclohexyl)acetamide], which IC50 [3] is on record?
**A.** Its IC50 is 68 nM.

**Q.** And the IC50 ([3]; Vesicular stomatitis virus)?
**A.** The IC50 was 130 nM.

**Q.** What about the “Effect of CYP3A4 inhibition on T1/2 (FIG. 9)” value (mouse, microsomes) of the same compound?
**A.** Its value is “improves”.

**Q.** And the “T1/2 (min)” value (mouse, microsomes, pH 7.4)?
**A.** The value was 1.4/144 min.

**Q.** What about the “Increase of stability in mouse liver microsomes by ritonavir” value (pH 7.4) of the same compound?
**A.** The value was 10- to 30 fold.

**Q.** What about the Kinetic solubility [4] of the same compound?
**A.** The Kinetic solubility was 93 µM.

**Q.** And the “Sol” value [4]?
**A.** The value was over 100 mM.

**Q.** What about the “C@12 hr” value [1] of the same compound?
**A.** Its value is 1.7 µM.

**Q.** What about the “Cl_obs” value [1] of the same compound?
**A.** Its value is 12.3 mL/min/kg.

**Q.** And the “Decrease of the clearance by co-administration of ritonavir” value ([1]; po)?
**A.** Its value is about 4 fold.

**Q.** And the “Increase of the AUC by co-administration of ritonavir” value ([1]; po)?
**A.** Its value is about 4 fold.

**Q.** What about the “C@12 hr” value ([1]; po, 25 mg/kg) of the same compound?
**A.** Its value is 0.2 µM.

**Q.** And the “Cl_obs” value ([1]; po, 25 mg/kg)?
**A.** The value was 49.0 mL/min/kg.

**Q.** What about the Cmax ([1]; po, 25 mg/kg) of the same compound?
**A.** Its Cmax is 7.2 µM.

**Q.** What about the “T1/2” value ([1]; po, 25 mg/kg) of the same compound?
**A.** Its value is 2.3 h.

**Q.** What about the Cmax (in vivo; 25 mg/kg) of the same compound?
**A.** Its Cmax is 12 µM.

**Q.** What about the half-life (in vitro [5]; pH 7.4, Microsome T1/2) of the same compound?
**A.** Its half-life is 0.145 to 0.217 h.

**Q.** What about the half-life (in vitro [5]; pH 7.4, T1/2(min)) of the same compound?
**A.** The half-life was 0.217 h.

**Q.** What about the half-life (in vitro [5]; pH 7.4, T1/2 + ritonavir (min)) of the same compound?
**A.** Its half-life is 2.4 h.

**Q.** What about the solubility kinetic (physchem) of the same compound?
**A.** Its solubility kinetic is over 100 µM.

**Q.** What does the source list for `CS(=O)(=O)c1ccc(CNc2ccc(Cl)cc2CN2CCN(C(=O)CNC(=O)CC3CCC(F)(F)CC3)CC2)cc1` [Compound 1477]?
**A.** EC50 (EBOV Kikwit): 12 nM; EC50 (EBOV Makona): 52 nM; EC50 (Ebola virus (Mayinga)): 33 nM; m-μsome T1/2 (with 3 μM of Ritonavir) (mouse, microsomes, pH 7.4): 1.5 h; Concentration required to reduce cell viability by 50% (cell viability): exceeded 10 μM; fraction unbound (in vitro [2]; m-plasma protein binding): 0.001

**Q.** Which results are given for `[2H]C([2H])(c1cc(Cl)ccc1N)N1CCN(C(=O)CNC(=O)C2CC23CCC(F)(F)CC3)CC1` (single isomer, unassigned; (-)) [(−)-1413]?
**A.** Increase of stability in mouse liver microsomes by ritonavir: 10- to 30 fold; MLM T½ (mouse, microsomes): 3 min; MLM, T½ (min) (ritonavir 3 μM) (mouse, microsomes): 91 min; HLM T½ [6]: 0.267 h; Mouse PPB (% bound) [7]: 87.9%; Kinetic solubility [4]: 78 µM; C@12 hr [1]: 2.0 µM; Cl_obs [1]: 15.5 mL/min/kg; AUClast ([1]; po, 50 mg/kg): 120.9 µM·h; T1/2 ([1]; po, 50 mg/kg): 3.2 h; Tmax ([1]; po, 50 mg/kg): 1.7 h

**Q.** For `COC(=O)c1ccc(COc2ccccc2CN2CCN(C(=O)CNC(=O)CC34CC5CC(CC(C5)C3)C4)CC2)cc1` [Compound 3.47, reference compound], which “Potency against EboV GP-dependent infection” value [8] is on record?
**A.** Its value is “increased potency”.

**Q.** What about the “Concentration required to reduce cell viability by 50%” value (cell viability) of the same compound?
**A.** Its value is “exceeded 10 μM”.

**Q.** Which results are given for `[2H]C([2H])(c1cc(Cl)ccc1NCc1ccc(S(C)(=O)=O)cc1)N1CCN(C(=O)CNC(=O)C2CC23CCC(F)(F)CC3)CC1` (single isomer, unassigned; (-)) [(−)-1503]?
**A.** MLM T½ (mouse, microsomes): 2 min; MLM, T½ (min) (ritonavir 3 μM) (mouse, microsomes): 87 min; HLM T½ [6]: 0.017 h; Mouse PPB (% bound) [7]: 99.8%; Kinetic solubility [4]: 4 µM; C@12 hr [1]: 5.7 µM; Cl_obs [1]: 12.5 mL/min/kg; Plasma concentration after 12 hours relative to in vitro IC50 against rVSV EBOV infection in 50% human serum [1]: 50 fold; AUClast ([1]; po, 50 mg/kg): 107.5 µM·h; T1/2 ([1]; po, 50 mg/kg): 1.7 h; Tmax ([1]; po, 50 mg/kg): 7.3 h

**Q.** For `O=C(CC12CC3CC(CC(C3)C1)C2)NCC(=O)N1CCN(Cc2ccccc2OCc2ccc(-c3ncco3)cc2)CC1` [Compound 1803, 2-((3r,5r,7r)-Adamantan-1-yl)-N-(2-(4-(2-((4-(oxazol-2-yl)benzyl)oxy)benzyl)piperazin-1-yl)-2-oxoethyl)acetamide], which IC50 ([3]; Vesicular stomatitis virus) is on record?
**A.** The IC50 was 270 nM.

**Q.** And the “Mouse plasma stability (% at 4 hours)” value [9]?
**A.** The value was 37%.

**Q.** What about the half-life (in vitro [5]; pH 7.4, MLM T½ (min)) of the same compound?
**A.** The half-life was 0.0167 h.

**Q.** And the fraction unbound (in vitro [2]; Mouse PPB (% bound))?
**A.** Its fraction unbound is 0.003.

**Q.** And the solubility kinetic (physchem)?
**A.** The solubility kinetic was 5 µM (≈ 2.91 µg/mL).

**Q.** With `CS(=O)(=O)c1ccc(COc2ccc(Cl)cc2CN2CCN(C(=O)CNC(=O)CC3CCC(F)(F)CC3)CC2)cc1` [Compound 1458] as the compound, how does the IC50 ([3]; Vesicular stomatitis virus) read?
**A.** The IC50 was 9 nM.

**Q.** What about the “MLM, T½ (min) (ritonavir 3 μM)” value (mouse, microsomes, pH 7.4) of the same compound?
**A.** The value was over 120 min.

**Q.** What about the “Mouse plasma stability (% at 4 hours)” value [9] of the same compound?
**A.** Its value is 30%.

**Q.** Which results are given for `O=C(CC12CC3CC(CC(C3)C1)C2)NCC(=O)N1CCN(Cc2ccccc2)CC1` [Compound 3.0]?
**A.** Infection of Vero cells by VSV pseudotyped with EboV Zaire GP [8]: inhibits infection; Infection of Vero cells by VSV particles with VSV G (VSV G): not; Infection of Vero cells by VSV pseudotyped with Lassa fever virus (LFV) GP [10]: not

Reference: patent US11629139B2 (priority 2017, dated 2023)
